Values of other authors, collected in patent publication US11903918B2, “Fumarate ester dosage forms with enhanced gastrointestinal tolerability” (BANNER LIFE SCIENCES LLC, priority 2020, dated 2024).
Structures can show the parent of a compound that is named as a salt.

Tests used:
[1] = test system: nuclear factor erythroid-derived 2-like (Nrf2) pathway; conditions: in vitro and in vivo in humans

solubility in water: highly soluble in water
SMILES: COC(=O)/C=C/C(=O)OC [dimethyl fumarate, dimethyl (E) butenedioate]
activation of the Nrf2 pathway [1]: activate
